Assay results: US6579851B2, “Effects of glucagon-like peptide-1 (7-36) on antro-pyloro-duodenal motility” (Amylin Pharmaceuticals, Inc., priority 2000, dated 2003)
Marks after values point to notes of the source that are not given here.

Key:
[1] = Plasma insulin during intravenous GLP-1 infusion (immunoassay); assay type: in vivo, human
Procedure: All values were expressed as mean±SEM. […] Differences were considered significant at P<0.05.
(§1) All studies were performed after an overnight fast.
The plasma was stored at −20° C. until assayed.

antro-duodenal motility = experiment: Antro-duodenal motility by perfusion manometry; assay type: in vivo, human; conditions: for Duodenal Motility Contractions: sum of three duodenal side holes; for Antral Motility Contractions: sum of two antral side holes
Procedure: Inhibition of antro-duodenal activity is assessed directly by motility recordings using methods that are well known to the skilled artisan. Contractile events are analyzed with a computer and validated software (Katschinski et al., Gastroenterol. 103, 383-91 (1992)) and only peaks with amplitudes of at least 10 mmHg and a duration of at least 2 s are considered true contractions. Duodenal phase III is defined as the occurrence of regular contractions at a frequency of ≧10/min for at least 2 min in the duodenum propagated aborally.
In one embodiment, the data are analyzed in 10-min segments separately for antrum and duodenum by summarizing (frequency, motility index) or averaging (amplitude) the values derived from, the two antral and three duodenal side holes, respectively. Motility indexes are identified as the area under the contractions and are expressed in mmHg·s·min^−1. Antral contractions are determined to be antro-pyloro-duodenally propagated waves if the onset of the pressure wave recorded in the most proximal duodenal side hole, occurs within 5 sec after the onset of a pressure wave recorded in one of the antral side holes and if both wave are registered by all side holes in between.
as §1
Perfusion manometry was recorded using a nine-lumen duodenal sleeve/side-hole catheter (Dentsleeve, South Australia, Australia). The manometric assembly incorporated a 4.5 cm long sleeve sensor, two antral side-holes (2 cm apart), and three duodenal side-holes (2 cm apart), beginning at the proximal and distal end of the sleeve, respectively. Two more side-holes were positioned across the sleeve spaced 1.5 cm apart. An additional lumen located 12 cm distal to the sleeve sensor was used for duodenal perfusion.
The correct position of the duodenal probe with the sleeve array straddling the pylorus was fluoroscopically checked before start of each experiment, and monitored throughout each study by measuring the transmucosal potential difference at the distal antral and the proximal duodenal port, as previously described (Schirra et al. J Clin Invest 97, 92-103 (1996)). A difference of at least −15 mV indicated correct transpyloric position of the tube.
The motility channels were perfused at a rate of 0.3 ml/min using a low-compliance pneumohydraulic pump (Arndorfer Medical Specialists, Greendale, Wis.). Pressures were measured by external transducers. Data were simultaneously recorded on the screen of a multichannel chart system (PC Polygraph, Synectics Medical, Stockholm, Sweden) and stored in the memory of a personal computer. Data were sampled and digitized at 8 Hz followed by digital smoothing by a factor of 2.

[2] = intraduodenal lipid, high dose 1.2 pmol·kg−1·min−1 iv.
[3] = intraduodenal lipid, low dose 0.4 pmol·kg−1·min−1 iv.
[4] = intraduodenal saline, high dose 1.2 pmol·kg−1·min−1 iv.
[5] = intraduodenal saline, low dose 0.4 pmol·kg−1·min−1 iv.
[6] = low dose GLP-1, interdigestive, duodenal saline

SMILES: CC[C@H](C)[C@H](NC(=O)[C@H](Cc1ccccc1)NC(=O)[C@H](CCC(=O)O)NC(=O)[C@H](CCCCN)NC(=O)[C@H](C)NC(=O)[C@H](C)NC(=O)[C@H](CCC(N)=O)NC(=O)CNC(=O)[C@H](CCC(=O)O)NC(=O)[C@H](CC(C)C)NC(=O)[C@H](Cc1ccc(O)cc1)NC(=O)[C@H](CO)NC(=O)[C@H](CO)NC(=O)[C@@H](NC(=O)[C@H](CC(=O)O)NC(=O)[C@H](CO)NC(=O)[C@@H](NC(=O)[C@H](Cc1ccccc1)NC(=O)[C@@H](NC(=O)CNC(=O)[C@H](CCC(=O)O)NC(=O)[C@H](C)NC(=O)[C@@H](N)Cc1c[nH]cn1)[C@@H](C)O)[C@@H](C)O)C(C)C)C(=O)N[C@@H](C)C(=O)N[C@@H](Cc1c[nH]c2ccccc12)C(=O)N[C@@H](CC(C)C)C(=O)N[C@H](C(=O)N[C@@H](CCCCN)C(=O)NCC(=O)N[C@@H](CCCNC(=N)N)C(N)=O)C(C)C [GLP-1, glucagon-like peptide-1(7-36)amide]
- Insulin (AUC over basal) [1, 2]: 31.4 ± 8.4∥ mU/l · 60 min
- Insulin (AUC over basal) [1, 3]: 24.7 ± 4.8∥ mU/l · 60 min
- Insulin (AUC over basal) [1, 4]: 11.9 ± 5.1 mU/l · 60 min
- Insulin (AUC over basal) [1, 5]: 11.3 ± 2.4 mU/l · 60 min
- Antral Amplitude (antro-duodenal motility; [2]): 23.0 ± 2.7 mmHg
- Antral Motility Index (antro-duodenal motility; [2]): 628 ± 249 mmHg*s/60 min
- Duodenal Amplitude (antro-duodenal motility; [2]): 19.2 ± 3.1 mmHg
- Duodenal Motility Index (antro-duodenal motility; [2]): 1174 ± 499 mmHg*s/60 min
- Duodenal Motility Contractions (antro-duodenal motility; [2]): 16.6 ± 5.9 number / 60 min
- Antral Motility Contractions (antro-duodenal motility; [2]): 9.2 ± 2.9 number / 60 min
- Antral Amplitude (antro-duodenal motility; [3]): 23.6 ± 3.1 mmHg
- Antral Motility Index (antro-duodenal motility; [3]): 880 ± 351 mmHg*s/60 min
- Duodenal Amplitude (antro-duodenal motility; [3]): 26.0 ± 3.3 mmHg
- Duodenal Motility Index (antro-duodenal motility; [3]): 2776 ± 890 mmHg*s/60 min
- Duodenal Motility Contractions (antro-duodenal motility; [3]): 29.5 ± 5.8 number / 60 min
- Antral Motility Contractions (antro-duodenal motility; [3]): 12.1 ± 4.1 number / 60 min
- Antral Amplitude (antro-duodenal motility; [4]): 21.1 ± 3.1 mmHg
- Antral Motility Index (antro-duodenal motility; [4]): 957 ± 322 mmHg*s/60 min
- Antro-Pyloro-Duodenal Propagated Contractions (antro-duodenal motility; [4]): 0.0* number/60 min
- Duodenal Amplitude (antro-duodenal motility; [4]): 17.5 ± 1.9 mmHg
- Duodenal Motility Index (antro-duodenal motility; [4]): 1119 ± 226 mmHg*s/60 min
- Duodenal Motility Contractions (antro-duodenal motility; [4]): 16.6 ± 3.9 number / 60 min
- Antral Motility Contractions (antro-duodenal motility; [4]): 9.6 ± 2.8 number / 60 min
- Antral Amplitude (antro-duodenal motility; [5]): 31.1 ± 3.1 mmHg
- Antral Motility Index (antro-duodenal motility; [5]): 1478 ± 564 mmHg*s/60 min
- Antro-Pyloro-Duodenal Propagated Contractions (antro-duodenal motility; [5]): 0.0* number/60 min
- Duodenal Amplitude (antro-duodenal motility; [5]): 25.0 ± 2.5 mmHg
- Duodenal Motility Index (antro-duodenal motility; [5]): 3447 ± 1624 mmHg*s/60 min
- Duodenal Motility Contractions (antro-duodenal motility; [5]): 36.0 ± 14.7 number / 60 min
- Antral Motility Contractions (antro-duodenal motility; [5]): 12.6 ± 2.8 number / 60 min
- Onset of inhibition of antro-duodenal motility after starting GLP-1 (antro-duodenal motility; [6]): ≤ 2 min
- Time to nearly complete inhibition of antro-duodenal motility (antro-duodenal motility; [6]): ≤ 20 min
